Laboratory results as given in patent publication US8470776B2, “Conjugates of disorazoles and their derivatives with cell-binding molecules, novel disorazole derivatives, processes of manufacturing and uses thereof” (Aeterna Zentaris GmbH, priority 2006, dated 2013).
In brackets after ≈: the same amount, converted by molar mass.

What was measured:
[1] = tested on: RKOp27 cells (human colon carcinoma cell line RKO), p27kip1 induced; experiment: cells; format: cell-based; settings: p27kip1 induced with 3 μM muristerone A, XTT, 45 h
Source text: (§1) The cell lines used are the human cervical carcinoma cell line KB/HeLa (ATCC CCL17), the ovarian adenocarcinoma cell line SKOV-3 (ATCC HTB77), the human glioblastoma cell line SF-268 (NCI-503138) and the lung carcinoma cell line NCI-H460 (NCI-503473). In addition, for the investigation of the cell cycle-specific action of the compounds of the invention, an RKOp27 cell system was used (Schmidt M et al. Oncogene 2000, 19(20): 2423-2429). RKO is a human colon carcinoma cell line (ATCC CRL-2577), in which the cell cycle inhibitor p27^kip1 induced by means of the ecdysone expression system is expressed and can be led to a cell cycle arrest specifically in […]. A nonspecifically acting substance inhibits the proliferation independently of whether the RKO cell is or is not arrested in G1 or G2. Cell cycle-specific substances such as, for example, tubulin inhibitors are, however, only cytotoxic if cells are not arrested and the cell cycle is passed through.
(§2) The adherently growing tumor cell lines KB/HeLa, SKOV-3, SF-268 and NCI-H460 were cultured under standard conditions in an incubator at 37° C., 5% CO2 and 95% atmospheric humidity. On experimental day 1, the cells are detached using trypsin/EDTA and pelleted by centrifugation. Subsequently, the cell pellet is resuspended in the respective culture medium at the corresponding cell count and reacted in a 96-well microtiter plate. The plates are then cultured overnight in the incubator. The test substances are prepared as 1 mg/ml stock solutions in DMSO and diluted to the appropriate concentrations on experimental day 2 using culture medium. The substances in culture medium are then added to the cells and incubated in the incubator for 45 h. As a control, cells which are not treated with test substance are used. For the XTT assay, 1 mg/ml of XTT (sodium 3′-[1-(phenylaminocarbonyl)-3,4-tetrazolium]-bis(4-methoxy-6-nitro)benzenesulfonic acid) is dissolved in RPMI-1640 medium without Phenol Red. Additionally, a 0.383 mg/ml PMS (N-methyldibenzopyrazine methylsulfate) solution in phosphate-buffered saline solution (PBS) is prepared. On experimental day 4, 75 μl/well of XTT-PMS mixture is pipetted onto the cell plates which in the meantime have been incubated with the test substances for 45 h. For this, shortly before use, the XTT solution is mixed with the PMS solution in the ratio 50:1 (vol:vol). The cell plates are then incubated in the incubator for a further 3 h and the optical density (OD490 nm) is determined in a photometer. By means of the OD490 nm determined, the percentage inhibition is calculated relative to the control and plotted semilogarithmically in the form of a concentration-action curve. The IC50 is calculated by means of a regression analysis from the concentration-action curve using the program Graphpad Prism.
(§3) The assay is carried out in 96-well plates. […] By comparison of the activity on induced and noninduced cells, conclusions on the mechanism of action (cell cycle specificity) of the therapeutics can be drawn. […] cells are inoculated in approximately three-fold higher cell count, since division no longer takes place during the assay in comparison with uninduced cells (20000 cells/well induced, 6250 cells/well not induced). The controls are untreated cells (+/−induction). The induction is carried out with 3 μM muristerone A. On the 1st day, the cells are exposed (+/−muristerone A) and incubated at 37° C. for 24 h. On day 2, the test substance is added (control DMSO) and incubation is continued at 37° C. for a further 45 h before a standard XTT assay is carried out.

[2] = tested on: RKOp27 cells (human colon carcinoma cell line RKO), p27kip1 not induced; experiment: cells; format: cell-based; settings: without expression of p27kip1, XTT, 45 h
Source text: as §1, §2, §3

[3] = tested on: ovarian adenocarcinoma cell line SKOV-3; experiment: cells; format: cell-based, human; settings: XTT, 45 h incubation
Source text: (§4) Selected compounds of the invention were investigated for their antiproliferative activity in a proliferation test on established tumor cell lines.
(§5) The test used determines the cellular dehydrogenase activity and makes possible a determination of the cell vitality and indirectly the cell count.
as §1, §2

[4] = tested on: lung carcinoma cell line NCI-H460; experiment: cells; format: cell-based, human; settings: XTT, 45 h incubation
Source text: as §4, §5, §1, §2

[5] = tested on: human glioblastoma cell line SF-268; experiment: cells; format: cell-based; settings: XTT, 45 h incubation
Source text: as §4, §5, §1, §2

[6] = tested on: human cervical carcinoma cell line KB/HeLa; experiment: cells; format: cell-based; settings: XTT, 45 h incubation
Source text: as §4, §5, §1, §2

cell models = settings: reported in literature; cited from earlier work
mammalian cells = settings: Elnakady et al. 2004; cited from earlier work

In the case of C/C=C/[C@H](O)C(C)(C)[C@@H]1C\C=C/C=C\C=C\[C@H](OC)Cc2nc(co2)C(=O)O[C@H](C(C)(C)[C@@H](O)/C=C/C)C/C=C\[C@H]2O[C@H]2/C=C/C=C\c2nc(co2)C(=O)O1 [disorazol A1, disorazole A1, reference compound], the “IC50 RKOp27 induced” value [1] was greater than 3160 ng/mL, the “IC50 RKOp27” value [2] was 0.049 ng/mL (≈ 0.0646 nM) and the “IC50 SKOV-3” value [3] was 0.027 ng/mL (≈ 0.0356 nM). The “IC50 NCI-H460” value [4] was 0.022 ng/mL (≈ 0.029 nM), the “IC50 SF-268” value [5] was 0.125 ng/mL (≈ 0.165 nM) and the “IC50 KB/HELA” value [6] was 0.049 ng/mL (≈ 0.0646 nM). The “antiproliferative action in cell models” value (cell models) was “possesses an antiproliferative action” and the “induction of apoptosis in mammalian cells” value (mammalian cells) was “induces apoptosis”.
